According to patent US4559323A, “A41030 Antibiotics” (Eli Lilly and Company, priority 1984, dated 1985):

Tests used:
[1] = test system: Peptococcus asaccharolyticus; assay: Agar-dilution MIC (anaerobes); type: cell-based; conditions: Table 14; Peptococcus asaccharolyticus 1302
Pc. magnus = assay: Agar-dilution MIC (anaerobes); type: cell-based, Peptococcus magnus; conditions: Table 15
Procedure: The MIC values were determined by the agar-dilution method, and are recorded in Table 15, which follows.

Propionibacterium acnes = assay: Agar-dilution MIC (anaerobes); type: cell-based
From the text: Antibiotic A41030 factors A, B and C have also been tested and found to be active against a genus of anaerobic bacteria identified as Propionibacterium acnes.

Staphylococcus aureus = assay: Agar-dilution MIC; type: cell-based; conditions: Table 17; 24 hours; Staphylococcus aureus X400
Bacteroides fragilis = assay: Agar-dilution MIC (anaerobes); type: cell-based
From the text: (§1) The agar-dilution procedure described by the International Collaborative study (ICS) group was used to determine the minimum inhibitory concentrations (MIC's).

[2] = test system: Staphylococcus epidermidis; assay: Agar-dilution MIC; type: cell-based; conditions: Table 17; 24 hours; Staphylococcus epidermidis EPI1
From the text: as §1

Streptococcus pneumoniae = assay: Agar-dilution MIC; type: cell-based; conditions: Table 17; 24 hours; Streptococcus pneumoniae Park I
From the text: as §1

Streptococcus pyogenes = assay: Agar-dilution MIC; type: cell-based; conditions: Table 17; 24 hours; Streptococcus pyogenes C203
From the text: as §1

[3] = test system: Streptococcus sp. (Group D); assay: Agar-dilution MIC; type: cell-based; conditions: Table 17, 24 hours
From the text: as §1

A41030 factor C gave an MIC [1] of at most 0.25 µg/mL, an MIC (Pc. magnus; Pc. magnus 1401) of 0.25 µg/mL and an MIC (Pc. magnus; Pc. magnus 1421) of 0.25 µg/mL. For the same substance, the MIC (Pc. magnus; Pc. magnus 1477) was 0.5 µg/mL, the MIC (Propionibacterium acnes; Table 13, 24-hour, P. acnes 44) was 0.125 µg/mL and the MIC (Propionibacterium acnes; Table 13, 24-hour, P. acnes 79) was 0.125 µg/mL. The MIC (Propionibacterium acnes; Table 13, 24-hour, P. acnes 101) was 0.125 µg/mL, the MIC (Propionibacterium acnes; Table 13, 24-hour, P. acnes 103) was 0.125 µg/mL and the MIC (Propionibacterium acnes; Table 13, 24-hour, P. acnes 104) was 0.25 µg/mL. For the same substance, the MIC (Propionibacterium acnes; Table 13, 24-hour, P. acnes 105) was 0.125 µg/mL, the MIC (Propionibacterium acnes; Table 13, 24-hour, P. acnes 106) was 0.125 µg/mL and the MIC (Propionibacterium acnes; Table 13, 24-hour, P. acnes 107) was 0.125 µg/mL. It also gave an MIC (Propionibacterium acnes; Table 13, 24-hour, P. acnes 5170) of at most 0.03 µg/mL, an MIC (Propionibacterium acnes; Table 13, 24-hour, P. acnes 5176) of at most 0.03 µg/mL and an MIC (Propionibacterium acnes; Table 13, 24-hour, P. acnes 5187) of 0.06 µg/mL. The MIC (Propionibacterium acnes; Table 13, 24-hour, P. acnes 5191) was 0.125 µg/mL, the MIC (Propionibacterium acnes; Table 13, 24-hour, P. acnes 5197) was at most 0.03 µg/mL and the MIC (Propionibacterium acnes; Table 13, 24-hour, P. acnes 5226) was 0.125 µg/mL. It also gave an MIC (Propionibacterium acnes; Table 13, 24-hour, P. acnes 5227) of 0.06 µg/mL, an MIC (Propionibacterium acnes; Table 13, 24-hour, P. acnes 5228) of 1.0 µg/mL and an MIC (Propionibacterium acnes; Table 13, 24-hour, P. acnes 5229) of 0.5 µg/mL. The MIC (Propionibacterium acnes; Table 13, 24-hour, P. acnes 5246) was 0.06 µg/mL, the MIC (Propionibacterium acnes; Table 13, 24-hour, P. acnes 5292) was 0.06 µg/mL and the MIC (Propionibacterium acnes; Table 14, Propionibacterium acnes 79) was at most 0.25 µg/mL. It also gave an MIC (Staphylococcus aureus) of 1 µg/mL, an MIC (Bacteroides fragilis; Table 12, 24-hour, B. fragilis 2) of 32 µg/mL and an MIC (Bacteroides fragilis; Table 12, 24-hour, B. fragilis 9) of 32 µg/mL. It also gave an MIC (Bacteroides fragilis; Table 12, 24-hour, B. fragilis 103) of 32 µg/mL, an MIC (Bacteroides fragilis; Table 12, 24-hour, B. fragilis 104) of 32 µg/mL and an MIC (Bacteroides fragilis; Table 12, 24-hour, B. fragilis 106) of 32 µg/mL. The MIC (Bacteroides fragilis; Table 12, 24-hour, B. fragilis 107) was 32 µg/mL, the MIC (Bacteroides fragilis; Table 12, 24-hour, B. fragilis 108) was 64 µg/mL and the MIC (Bacteroides fragilis; Table 12, 24-hour, B. fragilis 110) was 64 µg/mL. The MIC (Bacteroides fragilis; Table 12, 24-hour, B. fragilis 111) was 32 µg/mL, the MIC (Bacteroides fragilis; Table 12, 24-hour, B. fragilis 112) was 32 µg/mL and the MIC (Bacteroides fragilis; Table 12, 24-hour, B. fragilis 113) was 32 µg/mL. For the same substance, the MIC (Bacteroides fragilis; Table 12, 24-hour, B. fragilis 1451) was 64 µg/mL, the MIC (Bacteroides fragilis; Table 12, 24-hour, B. fragilis 1470) was 64 µg/mL and the MIC (Bacteroides fragilis; Table 12, 24-hour, B. fragilis 1877) was 32 µg/mL. For the same substance, the MIC (Bacteroides fragilis; Table 12, 24-hour, B. fragilis 9032) was 32 µg/mL, the MIC (Bacteroides fragilis; Table 14, Bacteroides fragilis 1877) was 16 µg/mL and the MIC (Bacteroides fragilis; Table 14, Bacteroides fragilis 1936B) was 32 µg/mL. The MIC [2] was 0.5 µg/mL, the MIC (Streptococcus pneumoniae) was 1 µg/mL and the MIC (Streptococcus pyogenes) was 1 µg/mL. For the same substance, the MIC ([3]; Streptococcus sp. Group D 9960) was 4 µg/mL and the MIC ([3]; Streptococcus sp. Group D X66) was 2 µg/mL.
